Columns and labels:
IL-3 = experiment: PT-18β proliferation assay (WST-1), IL-3 negative control; type: cell-based; details: PT-18β cells, 1 nM cytokine, BNZ-γ as 1:20 or 1:60 dilution of HEK293T supernatant, 2 days
Source text: (§1) For each of the six γc-cytokines, indicator cell lines: NK92, a human NK cell line NK92 available by American Type Culture Collection (ATCC) (catalog # CRL-2407), CTLL-2, a murine CD8 T cells line available from ATCC, and PT-18, a murine mast cell line and its subclone PT-18β, is transfected with human IL-2Rβ gene to make the cells responsive to IL-2 and IL-15 (Tagaya et al., 1996, EMBO J. 15:4928-39), and is used to quantitatively determine the γc-cytokine’s growth-promoting activity (See Current protocols in Immunology from Wiley and Sons for a methodological reference).
(§2) Once the appropriate doses of the cytokine that yield the 50% and 95% maximum response from the indicator cell line is determined, various concentrations (ranging from 1 pM to 10 µM) of the purified or synthesized custom derivative peptide is added to each well containing the cytokine and indicator cells. The reduction in light absorbance at 450 nm is used as an indicator of inhibition of cytokine-stimulated cellular proliferation. Typically, the cells are stimulated by the cytokines such that the absorbance of the well containing indicator cell line and the cytokine is between 2.0 and 3.0, which is reduced to a range of 0.1 to 0.5 by the addition of inhibitory peptides. […]
(§3) The growth-responses of the cells were determined 2 days after the introduction of BNZ-γpeptide and the cytokine using the WST-1 assay. […]

IL-15 = experiment: PT-18β proliferation assay (WST-1), IL-15; type: cell-based; details: PT-18β cells, 1 nM cytokine, BNZ-γ as 1:20 or 1:60 dilution of HEK293T supernatant, 2 days
Source text: as §1, §2, §3

STAT5 = experiment: IL-15-mediated tyrosine phosphorylation of STAT5 in PT-18β cells (immunoblot); type: cell-based; details: PT-18β cells stimulated by IL-15, anti-phospho-STAT5 immunoblot
Source text: In addition to stimulating cellular proliferation, binding of the γc-cytokines to their receptors causes a diverse array of intracellular events. (Rochman et al., 2009, Nat Rev Immunol 9:480-90; Pesu et al., 2005, Immunol Rev 203:127-42). Immediately after the cytokine binds to its receptor, a tyrosine kinase called Jak3 (Janus-kinase 3) is recruited to the receptor at the plasma membrane. This kinase phosphorylates the tyrosine residues of multiple proteins including the γc-subunit, STAT5 (Signal Transducer and Activator of Transcription 5) and subunits of the PI3 (Phosphatidylinositol 3) kinase. Among these, the phosphorylation of STAT5 has been implicated in many studies as being linked to the proliferation of cells initiated by the γc-cytokine (Hennighausen and Robinson, 2008, Genes Dev 22:711-21). In accordance with these published data, whether or not the BNZ-γ peptide inhibits the tyrosine phosphorylation of STAT5 molecule in PT-18β cells stimulated by IL-15 was examined (results shown in FIG. 4).
PT-18β cells were stimulated by IL-15 in the presence or absence of BNZ-γ peptide. Cytoplasmic proteins were extracted from the cells according to a conventional method (Tagaya et al., 1996, EMBO J 15:4928-39). […]

IL-4 = experiment: PT-18β proliferation assay (WST-1), IL-4; type: cell-based; details: PT-18β cells, 1 nM cytokine, BNZ-γ as 1:20 or 1:60 dilution of HEK293T supernatant, 2 days
Source text: as §1, §2, §3

[1] = tested on: pro-inflammatory cytokines IL-6, IFN-γ, TNF-α, and MCP-1; details: mouse, in vivo
[2] = tested on: NSG mice transplanted with huPBMCs and infected with LCMV; details: mouse, in vivo
IL-9 = experiment: PT-18β proliferation assay (WST-1), IL-9; type: cell-based; details: PT-18β cells, 1 nM cytokine, BNZ-γ as 1:20 or 1:60 dilution of HEK293T supernatant, 2 days
Source text: as §1, §2, §3

IL-2 = experiment: CTLL-2 proliferation assay (3H-thymidine), IL-2; type: cell-based; details: CTLL-2 cells, 50 pM IL-2, BNZ-γ 0.1, 1, 10 µM, 20 hours, 3H-thymidine (FIG. 3B)
Experimental: In a similar assay, the murine cell line CTTL2 was used. In this assay the cells were cultured with 0.5 nM of recombinant IL-2 in RPMI 10% fetal Calf Serum. To set up the proliferation assay, cells were washed from the cytokines 3 times. Cells were seeded at 1 × 10(5) cells per well of a 96-well plate with final concentration of 50 pM of IL-2 or IL-15. Various concentration of BNZ-γ peptide (0.1, 1, and 10 µM) was added to each well. Cells were cultured for 20 hours and in the last 4 hours, ^3H-thymidine was added to the plates. Cells were harvested and radioactivity measured to determine cell proliferation levels.
Inhibition of γc-cytokine-induced proliferation of an indicator cell population by antagonist custom derivative peptides is measured by the 3H-thymidine incorporation assay. Briefly, radiolabeled thymidine (1 microCi) is given to 20-50,000 cells undergoing proliferation in the presence of cytokines. The cell-incorporated radioactivity is measured by trapping cell-bound radioactivity to a glass-fiber filter using a conventional harvester machines (Example, Filtermate Universal Harvester from Perkin-Elmer), after which the radioactivity is measured using a b-counter (Example 1450, Trilux microplate scintillation counter).

Sequence of IL-3 (P01586 27-166): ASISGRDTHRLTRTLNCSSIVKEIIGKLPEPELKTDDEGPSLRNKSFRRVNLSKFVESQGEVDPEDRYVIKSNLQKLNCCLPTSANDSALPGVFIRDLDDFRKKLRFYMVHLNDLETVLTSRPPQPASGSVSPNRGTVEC

Substance: I-K-E-F-L-Q-R-F-I-H-I-V-Q-S-I-I-N-T-S (IKEFLQRFIHIVQSIINTS) [BNZ-γ]
- growth-promoting activity of IL-3 (a non γc-cytokine) (IL-3): not inhibited
- growth-promoting activity of IL-15 (IL-15): significantly (p<0.01 Student’s T test) reduced
- tyrosine phosphorylation of STAT5 induced by IL-15 (STAT5): markedly reduced
- cellular proliferation stimulated by IL-4 (IL-4): not affected
- pro-inflammatory cytokine plasma levels [1]: drastically reduced
- course of IL-6 plasma level over the measurement period ([1]; 2 mg/kg): clear incremental decreases
- course of TNF-α plasma level over the measurement period ([1]; 2 mg/kg): clear incremental decreases
- drop in IFN-γ plasma level versus PBS vehicle control ([1]; 2 mg/kg): 4.5 fold
- drop in IL-6 plasma level versus PBS vehicle control ([1]; 2 mg/kg): 6 fold
- drop in MCP-1 plasma level versus PBS vehicle control ([1]; 2 mg/kg): 7.5 fold
- drop in TNF-α plasma level versus PBS vehicle control ([1]; 2 mg/kg): 7 fold
- protection from cytokine storm-induced mortality [2]: 100%
- survival over the 5-week study period [2]: survived the 5-week study period
- growth-promoting activity of IL-9 (IL-9): significantly (p<0.01 Student’s T test) reduced
- IL-2 induced cellular proliferation (IL-2): suppresses

From patent US20230338473A1, “AN[…] TARGETING IL-2, IL-9, AND IL-15 SIGNALING FOR THE TREATMENT OF CYTOK[…] AND CYTOKINE STORM ASSOCIATED DISORDERS” (priority 2020, published 2023)
